From paper PMC6481137, “Identification of Chinese Herbal Compounds with Potential as JAK3 Inhibitors” (Evidence-based Complementary and Alternative Medicine : eCAM, 2019)

Molecular target: T1, JAK3 kinase (Homo sapiens, UniProt P52333)
T1 construct: JAK3 kinase domain (amino acids 781 to 1124)
Assay: ELISA kinase assay, poly(Glu,Tyr) substrate, […] ATP
Type: biochemical

T1 sequence (P52333 781-1124): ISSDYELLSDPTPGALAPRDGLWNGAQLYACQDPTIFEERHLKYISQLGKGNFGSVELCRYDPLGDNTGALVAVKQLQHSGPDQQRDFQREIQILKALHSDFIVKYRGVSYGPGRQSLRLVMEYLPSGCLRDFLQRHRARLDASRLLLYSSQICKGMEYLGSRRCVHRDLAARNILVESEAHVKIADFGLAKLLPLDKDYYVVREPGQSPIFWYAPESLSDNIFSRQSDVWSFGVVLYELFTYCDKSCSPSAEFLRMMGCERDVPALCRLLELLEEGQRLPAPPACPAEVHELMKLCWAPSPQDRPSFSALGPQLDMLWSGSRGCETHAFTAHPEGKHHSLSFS

Row | Compound | IC50 [µM]
1 | COc1ccc(-c2oc3c(CC=C(C)C)c(O)cc(O)c3c(=O)c2O)cc1 [ICA, Icaritin] | ~20
2 | C[C@H]1COC2=C1C(=O)C(=O)c1c2ccc2c1CCCC2(C)C [CRY, Cryptotanshinone] | ~25
3 | O=C1Nc2ccccc2/C1=C1/Nc2ccccc2C1=O [IND, Indirubin] | ~50
